Assay results: patent publication US6358885B1, “Substituted phenylheterocyclic herbicides” (Mississippi State University, priority 1992, dated 2002)

Assays:
wheat = test: Test C preemergence/postemergence greenhouse plant response rating 0 to 100; assay type: in vivo, Triticum aestivum; conditions: for Plant response rating, Wheat: 0 to 100 scale
Summary of the method: (§1)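 Compounds in non-phytotoxic solvent went onto sandy loam before emergence (seeded one day earlier) or onto plants at the one-to-four leaf stage. Duck salad was treated via flood water (~2.5 cm, maintained) over silt loam.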

crabgrass = test: as above; assay type: in vivo, Digitaria sanguinalis; conditions: for Plant response rating, Crabgrass: 0 to 100 scale
Summary of the method: as §1

velvetleaf [1] = test: as above; assay type: in vivo, Abutilon theophrasti; conditions: for Plant response rating, Velvetleaf: 0 to 100 scale
Summary of the method: as §1

morningglory [2] = test: as above; assay type: in vivo, Ipomoea hederacea; conditions: for Plant response rating, Morningglory: 0 to 100 scale
Summary of the method: as §1

velvetleaf [3] = test: Test B preemergence/postemergence greenhouse plant response rating 0 to 10; assay type: in vivo, Abutilon theophrasti; conditions: for Plant response rating, Velvetleaf: 0 to 10 scale
Summary of the method: (§2)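 Test chemicals were sprayed onto freshly planted seed and, concurrently, onto young plants between the one and four leaf stage. After a twelve- to sixteen-day greenhouse period, each species was visually compared with untreated controls.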

chickweed = test: as above; assay type: in vivo, Stellaria media; conditions: for Plant response rating, Chickweed: 0 to 10 scale
Summary of the method: as §2

soybean = test: as above; assay type: in vivo, Glycine max; conditions: for Plant response rating, Soybean: 0 to 10 scale
Summary of the method: as §2

morningglory [4] = test: as above; assay type: in vivo, Ipomoea hederacea; conditions: for Plant response rating, Morningglory: 0 to 10 scale
Summary of the method: as §2

corn [5] = test: Test C preemergence/postemergence greenhouse plant response rating 0 to 100; assay type: in vivo, Zea mays; conditions: for Plant response rating, Corn: 0 to 100 scale
Summary of the method: as §1

corn [6] = test: Test B preemergence/postemergence greenhouse plant response rating 0 to 10; assay type: in vivo, Zea mays; conditions: for Plant response rating, Corn: 0 to 10 scale
Summary of the method: as §2

lambsquarters = test: Test C preemergence/postemergence greenhouse plant response rating 0 to 100; assay type: in vivo, Chenopodium album; conditions: for Plant response rating Lambsquarters: 0 to 100 scale
Summary of the method: as §1

sugar beet = test: Test B preemergence/postemergence greenhouse plant response rating 0 to 10; assay type: in vivo, Beta vulgaris; conditions: for Plant response rating, Sugar beet: 0 to 10 scale
Summary of the method: as §2

## C#CC(C)Oc1cc(-c2nn3c(c2Br)CCCC3)c(F)cc1Cl (stereo not drawn) [Compound 66]
wheat; POSTEMERGENCE, 62 g/ha
  Plant response rating, Wheat: 60
wheat; POSTEMERGENCE, 250 g/ha
  Plant response rating, Wheat: 70
wheat; POSTEMERGENCE, Rate 4 g/ha
  Plant response rating (0 to 100), Wheat: 20
wheat; PREEMERGENCE, 250 g/ha
  Plant response rating, Wheat: 70
wheat; PREEMERGENCE, Rate 4 g/ha
  Plant response rating (0 to 100), Wheat: 0
wheat; Rate 16 g/ha, POSTEMERGENCE
  Plant response rating (0 to 100), Wheat: 40
wheat; Rate 16 g/ha, PREEMERGENCE
  Plant response rating (0 to 100), Wheat: 0
crabgrass; POSTEMERGENCE, 62 g/ha
  Plant response rating, Crabgrass: 40
crabgrass; POSTEMERGENCE, 250 g/ha
  Plant response rating, Crabgrass: 50
crabgrass; POSTEMERGENCE, Rate 4 g/ha
  Plant response rating (0 to 100), Crabgrass: 10
crabgrass; PREEMERGENCE, 62 g/ha
  Plant response rating, Crabgrass: 50
crabgrass; PREEMERGENCE, 250 g/ha
  Plant response rating, Crabgrass: 100
crabgrass; PREEMERGENCE, Rate 4 g/ha
  Plant response rating (0 to 100), Crabgrass: 0
crabgrass; Rate 16 g/ha, POSTEMERGENCE
  Plant response rating (0 to 100), Crabgrass: 20
crabgrass; Rate 16 g/ha, PREEMERGENCE
  Plant response rating (0 to 100), Crabgrass: 0
Velvetleaf [1]; POSTEMERGENCE, 62 g/ha
  Plant response rating, Velvetleaf: 75
Velvetleaf [1]; POSTEMERGENCE, 250 g/ha
  Plant response rating, Velvetleaf: 100
Velvetleaf [1]; POSTEMERGENCE, Rate 4 g/ha
  Plant response rating (0 to 100), Velvetleaf: 60
Velvetleaf [1]; PREEMERGENCE, 250 g/ha
  Plant response rating, Velvetleaf: 100
Velvetleaf [1]; Rate 16 g/ha, POSTEMERGENCE
  Plant response rating (0 to 100), Velvetleaf: 65
Velvetleaf [1]; Rate 16 g/ha, PREEMERGENCE
  Plant response rating (0 to 100), Velvetleaf: 70
Morningglory [2]; POSTEMERGENCE, 62 g/ha
  Plant response rating, Morningglory: 85
Morningglory [2]; POSTEMERGENCE, 250 g/ha
  Plant response rating, Morningglory: 100
Morningglory [2]; POSTEMERGENCE, Rate 4 g/ha
  Plant response rating (0 to 100), Morningglory: 50
Morningglory [2]; PREEMERGENCE, 62 g/ha
  Plant response rating, Morningglory: 10
Morningglory [2]; PREEMERGENCE, 250 g/ha
  Plant response rating, Morningglory: 60
Morningglory [2]; PREEMERGENCE, Rate 4 g/ha
  Plant response rating (0 to 100), Morningglory: 0
Morningglory [2]; Rate 16 g/ha, POSTEMERGENCE
  Plant response rating (0 to 100), Morningglory: 50
Morningglory [2]; Rate 16 g/ha, PREEMERGENCE
  Plant response rating (0 to 100), Morningglory: 0
Velvetleaf [3]; POSTEMERGENCE, Rate 50 g/ha
  Plant response rating, Velvetleaf: 10
Velvetleaf [3]; PREEMERGENCE, Rate 50 g/ha
  Plant response rating, Velvetleaf: 6
Velvetleaf [3]; PREEMERGENCE, Rate 200 g/ha
  Plant response rating (0 to 10 scale), Velvetleaf: 9
Velvetleaf [3]; Rate 200 g/ha, POSTEMERGENCE
  Plant response rating, Velvetleaf: 10
chickweed; PREEMERGENCE, Rate 50 g/ha
  Plant response rating, Chickweed: 4
chickweed; PREEMERGENCE, Rate 200 g/ha
  Plant response rating (0 to 10 scale), Chickweed: 5
soybean; POSTEMERGENCE, Rate 50 g/ha
  Plant response rating, Soybean: 6
soybean; PREEMERGENCE, Rate 50 g/ha
  Plant response rating, Soybean: 0
soybean; PREEMERGENCE, Rate 200 g/ha
  Plant response rating (0 to 10 scale), Soybean: 0
soybean; Rate 200 g/ha, POSTEMERGENCE
  Plant response rating, Soybean: 8
Morningglory [4]; POSTEMERGENCE, Rate 50 g/ha
  Plant response rating, Morningglory: 10
Morningglory [4]; PREEMERGENCE, Rate 50 g/ha
  Plant response rating, Morningglory: 0
Morningglory [4]; PREEMERGENCE, Rate 200 g/ha
  Plant response rating (0 to 10 scale), Morningglory: 2
Morningglory [4]; Rate 200 g/ha, POSTEMERGENCE
  Plant response rating, Morningglory: 10
Corn [5]; POSTEMERGENCE, 62 g/ha
  Plant response rating, Corn: 40
Corn [5]; POSTEMERGENCE, 250 g/ha
  Plant response rating, Corn: 60
Corn [5]; POSTEMERGENCE, Rate 4 g/ha
  Plant response rating (0 to 100), Corn: 30
Corn [5]; PREEMERGENCE, 62 g/ha
  Plant response rating, Corn: 0
Corn [5]; PREEMERGENCE, 250 g/ha
  Plant response rating, Corn: 60
Corn [5]; PREEMERGENCE, Rate 4 g/ha
  Plant response rating (0 to 100), Corn: 0
Corn [5]; Rate 16 g/ha, POSTEMERGENCE
  Plant response rating (0 to 100), Corn: 30
Corn [5]; Rate 16 g/ha, PREEMERGENCE
  Plant response rating (0 to 100), Corn: 0
Corn [6]; POSTEMERGENCE, Rate 50 g/ha
  Plant response rating, Corn: 3
Corn [6]; PREEMERGENCE, Rate 50 g/ha
  Plant response rating, Corn: 0
Corn [6]; PREEMERGENCE, Rate 200 g/ha
  Plant response rating (0 to 10 scale), Corn: 0
Corn [6]; Rate 200 g/ha, POSTEMERGENCE
  Plant response rating, Corn: 3
lambsquarters; POSTEMERGENCE, 62 g/ha
  Plant response rating Lambsquarters: 100
lambsquarters; POSTEMERGENCE, 250 g/ha
  Plant response rating Lambsquarters: 100
lambsquarters; POSTEMERGENCE, Rate 4 g/ha
  Plant response rating (0 to 100), Lambsquarters: 30
lambsquarters; PREEMERGENCE, 62 g/ha
  Plant response rating Lambsquarters: 100
lambsquarters; PREEMERGENCE, 250 g/ha
  Plant response rating Lambsquarters: 100
lambsquarters; PREEMERGENCE, Rate 4 g/ha
  Plant response rating (0 to 100), Lambsquarters: 0
lambsquarters; Rate 16 g/ha, POSTEMERGENCE
  Plant response rating (0 to 100), Lambsquarters: 80
lambsquarters; Rate 16 g/ha, PREEMERGENCE
  Plant response rating (0 to 100), Lambsquarters: 70
Sugar beet; POSTEMERGENCE, Rate 50 g/ha
  Plant response rating, Sugar beet: 10
Sugar beet; PREEMERGENCE, Rate 50 g/ha
  Plant response rating, Sugar beet: 8
Sugar beet; PREEMERGENCE, Rate 200 g/ha
  Plant response rating (0 to 10 scale), Sugar beet: 10
Sugar beet; Rate 200 g/ha, POSTEMERGENCE
  Plant response rating, Sugar beet: 10

## COC(=O)c1cc(-c2nn3c(c2Cl)CCCC3)c(F)cc1Cl [Compound 43]
wheat; POSTEMERGENCE, 62 g/ha
  Plant response rating, Wheat: 50
wheat; POSTEMERGENCE, 250 g/ha
  Plant response rating, Wheat: 60
wheat; POSTEMERGENCE, Rate 4 g/ha
  Plant response rating (0 to 100), Wheat: 20
wheat; Rate 16 g/ha, POSTEMERGENCE
  Plant response rating (0 to 100), Wheat: 40
crabgrass; POSTEMERGENCE, 62 g/ha
  Plant response rating, Crabgrass: 20
crabgrass; POSTEMERGENCE, 250 g/ha
  Plant response rating, Crabgrass: 60
crabgrass; POSTEMERGENCE, Rate 4 g/ha
  Plant response rating (0 to 100), Crabgrass: 10
crabgrass; Rate 16 g/ha, POSTEMERGENCE
  Plant response rating (0 to 100), Crabgrass: 20
Velvetleaf [1]; POSTEMERGENCE, 62 g/ha
  Plant response rating, Velvetleaf: 100
Velvetleaf [1]; POSTEMERGENCE, 250 g/ha
  Plant response rating, Velvetleaf: 100
Velvetleaf [1]; POSTEMERGENCE, Rate 4 g/ha
  Plant response rating (0 to 100), Velvetleaf: 50
Velvetleaf [1]; Rate 16 g/ha, POSTEMERGENCE
  Plant response rating (0 to 100), Velvetleaf: 100
Morningglory [2]; POSTEMERGENCE, 62 g/ha
  Plant response rating, Morningglory: 90
Morningglory [2]; POSTEMERGENCE, 250 g/ha
  Plant response rating, Morningglory: 100
Morningglory [2]; POSTEMERGENCE, Rate 4 g/ha
  Plant response rating (0 to 100), Morningglory: 40
Morningglory [2]; Rate 16 g/ha, POSTEMERGENCE
  Plant response rating (0 to 100), Morningglory: 60
Velvetleaf [3]; POSTEMERGENCE, Rate 50 g/ha
  Plant response rating, Velvetleaf: 10
Velvetleaf [3]; PREEMERGENCE, Rate 50 g/ha
  Plant response rating, Velvetleaf: 5
Velvetleaf [3]; Rate 200 g/ha, POSTEMERGENCE
  Plant response rating, Velvetleaf: 10
Velvetleaf [3]; Rate 200 g/ha, PREEMERGENCE
  Plant response rating, Velvetleaf: 10
chickweed; POSTEMERGENCE, Rate 200 g/ha
  Plant response rating, Chickweed: 10
chickweed; PREEMERGENCE, Rate 50 g/ha
  Plant response rating, Chickweed: 0
chickweed; Rate 200 g/ha, PREEMERGENCE
  Plant response rating, Chickweed: 10
soybean; POSTEMERGENCE, Rate 50 g/ha
  Plant response rating, Soybean: 8
soybean; PREEMERGENCE, Rate 50 g/ha
  Plant response rating, Soybean: 4
soybean; Rate 200 g/ha, POSTEMERGENCE
  Plant response rating, Soybean: 9
soybean; Rate 200 g/ha, PREEMERGENCE
  Plant response rating, Soybean: 3
Morningglory [4]; POSTEMERGENCE, Rate 50 g/ha
  Plant response rating, Morningglory: 10
Morningglory [4]; PREEMERGENCE, Rate 50 g/ha
  Plant response rating, Morningglory: 0
Morningglory [4]; Rate 200 g/ha, POSTEMERGENCE
  Plant response rating, Morningglory: 10
Morningglory [4]; Rate 200 g/ha, PREEMERGENCE
  Plant response rating, Morningglory: 0
Corn [5]; POSTEMERGENCE, 62 g/ha
  Plant response rating, Corn: 90
Corn [5]; POSTEMERGENCE, 250 g/ha
  Plant response rating, Corn: 90
Corn [5]; POSTEMERGENCE, Rate 4 g/ha
  Plant response rating (0 to 100), Corn: 20
Corn [5]; Rate 16 g/ha, POSTEMERGENCE
  Plant response rating (0 to 100), Corn: 50
Corn [6]; POSTEMERGENCE, Rate 50 g/ha
  Plant response rating, Corn: 8
Corn [6]; POSTEMERGENCE, Rate 200 g/ha
  Plant response rating, Corn: 10
Corn [6]; PREEMERGENCE, Rate 50 g/ha
  Plant response rating, Corn: 0
Corn [6]; Rate 200 g/ha, PREEMERGENCE
  Plant response rating, Corn: 0
lambsquarters; POSTEMERGENCE, 62 g/ha
  Plant response rating Lambsquarters: 100
lambsquarters; POSTEMERGENCE, 250 g/ha
  Plant response rating Lambsquarters: 100
lambsquarters; POSTEMERGENCE, Rate 4 g/ha
  Plant response rating (0 to 100), Lambsquarters: 90
lambsquarters; Rate 16 g/ha, POSTEMERGENCE
  Plant response rating (0 to 100), Lambsquarters: 100
Sugar beet; POSTEMERGENCE, Rate 50 g/ha
  Plant response rating, Sugar beet: 10
Sugar beet; PREEMERGENCE, Rate 50 g/ha
  Plant response rating, Sugar beet: 9
Sugar beet; Rate 200 g/ha, POSTEMERGENCE
  Plant response rating, Sugar beet: 10
Sugar beet; Rate 200 g/ha, PREEMERGENCE
  Plant response rating, Sugar beet: 10
